pIC50: −log10 of the molar value.
Legend:
PI3K alpha = molecular target: T1, PI3K alpha (Homo sapiens, UniProt P42336); assay: Enzymatic PI3K alpha isoform inhibition (lipid kinase activity, Kinase-Glo); assay type: biochemical; conditions: enzymatic assay
T1 construct: His tag (C); made in house; host or cells: baculovirus; Tn5 (Trichoplusia ni) or TiniPro insect cells
Description: The kinase reaction is performed in a final volume of 50 μl per well of a half area COSTAR, 96 well plate. The final concentrations of ATP and phosphatidyl inositol in the assay are 5 μM and 6 μg/mL, respectively. The reaction is started by the addition of PI3 kinase, e.g. PI3 kinase δ.
(§1) In a more preferred assay, the kinase reaction is performed in a final volume of 10 μl per well of a low volume non-binding CORNING, 384 well black plate (Cat. No. #3676). The final concentrations of ATP and phosphatidyl inositol (PI) in the assay are 1 μM and 10 μg/mL, respectively. The reaction is started by the addition of ATP.
(§2) The components of the assay are added per well as follows:
(§3) 50 nl test compounds in 90% DMSO per well, in columns 1-20, 8 concentrations (1/3 and 1/3.33 serial dilution step) in single. • Low control: 50 nl of 90% DMSO in half the wells of columns 23-24 (0.45% in final). • High control: 50 nl of reference compound (e.g. compound of Example 7 in WO 2006/122806) in the other half of columns 23-24 (2.5 μM in final). • Standard: 50 nl of reference compound as just mentioned diluted as the test compounds in columns 21-22. • 20 mL ‘buffer’ are prepared per assay: • 200 μl of 1M TRIS HCl pH7.5 (10 mM in final) • 60 μl of 1M MgCl2 (3 mM in final) • 500 μl of 2M NaCl (50 mM in final) • 100 μl of 10% CHAPS (0.05% in final) • 200 μl of 100 mM DTT (1 mM in final) • 18.94 mL of nanopure water • 10 mL ‘PI’ are prepared per assay: • 200 μl of 1 mg/mL 1-alpha-Phosphatidylinositol (Liver Bovine, Avanti Polar Lipids Cat. No. 840042C MW=909.12) prepared in 3% OctylGlucoside (10 μg/mL in final) • 9.8 mL of ‘buffer’ • 10 mL ‘ATP’ are prepared per assay: • 6.7 μl of 3 mM stock of ATP giving a final concentration of 1 μM per well • 10 mL of ‘buffer’ • 2.5 mL of each PI3K construct are prepared per assay in ‘PI’ with the following final concentration: • 10 nM PI3K alfa EMV B1075 • 25 nM beta EMV BV949 • 10 nM delta EMV BV1060 • 150 nM gamma EMV BV950 • 5 μl of ‘PI/PI3K’ are added per well. • 5 μl ‘ATP’ are added per well to start the reaction. • The plates are then incubated at room temperature for 60 minutes (alfa, beta, delta) or 120 minutes (gamma). • The reaction is terminated by the addition of 10 μl Kinase-Glo (Promega Cat. No. #6714). • The assay plates are read after 10 minutes in Synergy 2 reader (BioTek, Vermont USA) with an integration time of 100 milliseconds and sensitivity set to 191. • Output: The High control is around 60'000 counts and the Low control is 30'000 or lower • This luminescence assay gives a useful Z′ ratio between 0.4 and 0.7
(§4) IC50 is determined by a four parameter curve fitting routine that comes along with “excel fit”. A four parameter logistic equation is used to calculate IC50 values (IDBS XLfit) of the percentage inhibition of each compound at 8 concentrations (usually 10, 3.0, 1.0, 0.3, 0.1, 0.030, 0.010 and 0.003 μM). Alternatively, IC50 values are calculated using idbsXLfit model 204, which is a 4 parameter logistic model.
(§5) Yet alternatively, for an ATP depletion assay, compounds of the formula I to be tested are dissolved in DMSO and directly distributed into a white 384-well plate at 0.5 μl per well. To start the reaction, 10 μl of 10 nM PI3 kinase and 5 μg/mL 1-alpha-phosphatidylinositol (PI) are added into each well followed by 10 μl of 2 μM ATP. The reaction is performed until approx 50% of the ATP is depleted, and then stopped by the addition of 20 μl of Kinase-Glo solution (Promega Corp., Madison, Wis., USA). The stopped reaction is incubated for 5 minutes and the remaining ATP is then detected via luminescence. IC50 values are then determined.

PI3K delta = molecular target: T2, PI3K delta (Homo sapiens, UniProt O00329); assay: Enzymatic PI3K delta isoform inhibition (lipid kinase activity, Kinase-Glo); assay type: biochemical; conditions: enzymatic assay
T2 construct: for the full-length p110-d subunit are generated and fused by overlapping PCR; His tag (C); made in house; host or cells: baculovirus; Tn5 (Trichoplusia ni) or TiniPro insect cells
Description: as §1, §2, §3, §4, §5

T1 sequence (P42336 with tags, fused parts or gaps limits assumed): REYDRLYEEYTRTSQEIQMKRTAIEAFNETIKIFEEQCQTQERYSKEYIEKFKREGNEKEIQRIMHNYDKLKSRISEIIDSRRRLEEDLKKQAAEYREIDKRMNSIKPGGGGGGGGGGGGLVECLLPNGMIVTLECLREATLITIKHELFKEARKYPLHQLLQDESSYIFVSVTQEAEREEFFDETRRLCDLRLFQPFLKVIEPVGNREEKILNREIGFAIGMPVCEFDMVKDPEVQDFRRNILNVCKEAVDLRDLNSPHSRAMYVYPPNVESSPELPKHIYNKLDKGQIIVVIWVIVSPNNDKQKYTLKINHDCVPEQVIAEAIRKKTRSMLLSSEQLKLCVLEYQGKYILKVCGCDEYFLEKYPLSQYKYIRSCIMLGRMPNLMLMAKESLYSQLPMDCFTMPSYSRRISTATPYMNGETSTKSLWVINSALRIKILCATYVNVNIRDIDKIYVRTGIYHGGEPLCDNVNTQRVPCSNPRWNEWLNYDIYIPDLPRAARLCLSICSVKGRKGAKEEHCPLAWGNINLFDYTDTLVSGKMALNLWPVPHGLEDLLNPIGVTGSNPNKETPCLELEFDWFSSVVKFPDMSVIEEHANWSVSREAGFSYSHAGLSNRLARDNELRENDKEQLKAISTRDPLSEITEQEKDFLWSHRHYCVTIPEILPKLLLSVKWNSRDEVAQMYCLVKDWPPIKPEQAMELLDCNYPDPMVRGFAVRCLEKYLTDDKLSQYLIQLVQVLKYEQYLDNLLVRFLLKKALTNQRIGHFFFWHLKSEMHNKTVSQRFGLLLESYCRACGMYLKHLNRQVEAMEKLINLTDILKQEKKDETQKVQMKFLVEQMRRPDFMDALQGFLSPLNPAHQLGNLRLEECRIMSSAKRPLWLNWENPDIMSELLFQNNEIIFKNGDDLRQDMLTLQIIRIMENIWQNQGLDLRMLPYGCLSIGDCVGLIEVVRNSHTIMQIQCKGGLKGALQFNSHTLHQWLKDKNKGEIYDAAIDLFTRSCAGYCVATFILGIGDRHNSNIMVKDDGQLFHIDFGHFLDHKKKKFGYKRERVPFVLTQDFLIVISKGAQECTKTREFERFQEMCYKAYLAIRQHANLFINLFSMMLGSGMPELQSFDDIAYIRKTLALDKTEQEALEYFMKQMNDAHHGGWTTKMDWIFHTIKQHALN
T2 sequence (O00329 with tags, fused parts or gaps limits assumed): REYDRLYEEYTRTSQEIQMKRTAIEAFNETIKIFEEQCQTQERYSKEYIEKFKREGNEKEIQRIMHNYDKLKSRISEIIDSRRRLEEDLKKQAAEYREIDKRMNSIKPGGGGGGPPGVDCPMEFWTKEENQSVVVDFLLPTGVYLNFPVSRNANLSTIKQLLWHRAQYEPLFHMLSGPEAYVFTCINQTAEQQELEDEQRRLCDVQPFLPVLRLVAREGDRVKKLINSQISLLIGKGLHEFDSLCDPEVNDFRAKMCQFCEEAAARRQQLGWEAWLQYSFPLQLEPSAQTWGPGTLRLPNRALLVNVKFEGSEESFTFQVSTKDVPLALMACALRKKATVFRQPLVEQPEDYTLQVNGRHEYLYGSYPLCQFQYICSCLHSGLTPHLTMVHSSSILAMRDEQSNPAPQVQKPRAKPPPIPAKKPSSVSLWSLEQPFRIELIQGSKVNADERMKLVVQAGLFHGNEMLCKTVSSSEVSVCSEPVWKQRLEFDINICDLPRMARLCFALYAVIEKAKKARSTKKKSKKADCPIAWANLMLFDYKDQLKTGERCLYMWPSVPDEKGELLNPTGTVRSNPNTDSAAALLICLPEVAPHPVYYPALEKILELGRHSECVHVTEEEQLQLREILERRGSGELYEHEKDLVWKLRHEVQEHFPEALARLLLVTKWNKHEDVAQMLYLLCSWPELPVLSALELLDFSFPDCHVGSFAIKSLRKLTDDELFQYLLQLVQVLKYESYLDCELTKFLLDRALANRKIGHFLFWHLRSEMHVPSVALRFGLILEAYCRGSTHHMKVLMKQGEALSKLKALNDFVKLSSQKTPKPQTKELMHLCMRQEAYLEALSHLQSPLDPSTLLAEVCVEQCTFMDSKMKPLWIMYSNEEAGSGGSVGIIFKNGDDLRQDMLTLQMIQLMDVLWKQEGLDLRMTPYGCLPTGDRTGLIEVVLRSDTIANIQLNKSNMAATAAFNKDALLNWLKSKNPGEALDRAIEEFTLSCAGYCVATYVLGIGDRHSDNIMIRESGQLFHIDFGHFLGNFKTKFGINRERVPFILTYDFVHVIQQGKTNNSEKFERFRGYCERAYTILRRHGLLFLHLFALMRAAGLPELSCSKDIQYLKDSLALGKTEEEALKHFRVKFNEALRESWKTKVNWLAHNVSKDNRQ

SMILES | pIC50 (PI3K alpha) | pIC50 (PI3K delta)
COc1ncc(-c2ccnc3ccc(O[C@H]4CCN(C(=O)C5CCN(C(C)=O)CC5)C4)cc23)cc1C [Example A27, 1-(4-{(S)-3-[4-(6-Methoxy-5-methyl-pyridin-3-yl)-quinolin-6-yloxy]-pyrrolidine-1-carbonyl}-piperidin-1-yl)-ethanone] | 6.27 | 7.85
CNc1cc(-c2ccnc3ccc(O[C@H]4CCN(C(=O)C5CCOCC5)C4)cc23)cnc1S(C)(=O)=O [Example A40, {(S)-3-[4-(6-Methanesulfonyl-5-methylamino-pyridin-3-yl)-quinolin-6-yloxy]-pyrrolidin-1-yl}-(tetrahydro-pyran-4-yl)-methanone] | 5.62 | 6.93
CCC(=O)N1CC[C@H](Oc2ccc3nccc(-c4cnc(OC)c(C#N)c4)c3c2)C1 [Example A18, 2-Methoxy-5-[6-((S)-1-propionyl-pyrrolidin-3-yloxy)-quinolin-4-yl]-nicotinonitrile] | 6.21 | 8.15
CS(=O)(=O)c1ncc(-c2ccnc3ccc(O[C@H]4CCN(C(=O)C5CCOCC5)C4)cc23)cc1CF [Example A20, {(S)-3-[4-(5-Fluoromethyl-6-methanesulfonyl-pyridin-3-yl)-quinolin-6-yloxy]-pyrrolidin-1-yl}-(tetrahydropyran-4-yl)-methanone] | 6.27 | 8.15
COc1ncc(-c2ccnc3ccc(O[C@H]4CCN(C(=O)C5CCOCC5)C4)cc23)cc1C#N [Example A3, 2-Methoxy-5-{6-[(S)-1-(tetrahydro-pyran-4-carbonyl)-pyrrolidin-3-yloxy]-quinolin-4-yl}-nicotinonitrile] | 6.37 | 8.52
CS(=O)(=O)c1ncc(-c2ccnc3ccc(O[C@H]4CCN(C(=O)C5CCOCC5)C4)cc23)cc1Cl [Example A28, {(S)-3-[4-(5-Chloro-6-methanesulfonyl-pyridin-3-yl)-quinolin-6-yloxy]-pyrrolidin-1-yl}-(tetrahydro-pyran-4-yl)-methanone] | 5.86 | 7.85
CS(=O)(=O)c1ncc(-c2ccnc3ccc(O[C@H]4CCN(C(=O)C5CCOCC5)C4)cc23)cc1C(F)F [Example A17, {(S)-3-[4-(5-Difluoromethyl-6-methanesulfonyl-pyridin-3-yl)-quinolin-6-yloxy]-pyrrolidin-1-yl}-(tetrahydro-pyran-4-yl)-methanone] | 6.47 | 8.15
CC(=O)N1CC[C@@H](C(=O)N2CC[C@H](Oc3ccc4nccc(-c5cnc(OC(F)F)c(C)c5)c4c3C)C2)C1 [Example B7, 1-((R)-3-{(S)-3-[4-(6-Difluoromethoxy-5-methyl-pyridin-3-yl)-5-methyl-quinolin-6-yloxy]-pyrrolidine-1-carbonyl}-pyrrolidin-1-yl)-ethanone] | 6.06 | 7.70
CC(=O)N1CC[C@@H](C(=O)N2CC[C@H](Oc3ccc4nccc(-c5cnc(OC(F)F)c(C)c5)c4c3)C2)C1 [Example A35, 1-((R)-3-{(S)-3-[4-(6-Difluoromethoxy-5-methyl-pyridin-3-yl)-quinolin-6-yloxy]-pyrrolidine-1-carbonyl}-pyrrolidin-1-yl)-ethanone] | 5.91 | 7.54
COc1ncc(-c2ccnc3ccc(O[C@H]4CCN(C(=O)c5cn(C)cn5)C4)cc23)cc1C#N [Example A30, 2-Methoxy-5-{6-[(S)-1-(1-methyl-1H-imidazole-4-carbonyl)-pyrrolidin-3-yloxy]-quinolin-4-yl}-nicotinonitrile] | 6.42 | 7.71
Cc1cc(-c2ccnc3ccc(O[C@H]4CCN(C(=O)C(C)C)C4)cc23)cnc1S(C)(=O)=O [Example A36, 1-{(S)-3-[4-(6-Methanesulfonyl-5-methyl-pyridin-3-yl)-quinolin-6-yloxy]-pyrrolidin-1-yl}-2-methyl-propan-1-one] | 5.80 | 7.41
COc1ncc(-c2ccnc3ccc(O[C@H]4CCN(C(=O)C5CCOCC5)C4)c(C)c23)cc1C#N [Example B8, 2-Methoxy-5-{5-methyl-6-[(S)-1-(tetrahydro-pyran-4-carbonyl)-pyrrolidin-3-yloxy]-quinolin-4-yl}-nicotinonitrile] | 5.84 | 7.22

Now those with a higher pIC50 (PI3K alpha), led by results:

pIC50 (PI3K alpha) | pIC50 (PI3K delta) | SMILES
6.88 | 8.40 | COc1ncc(-c2ccnc3ccc(O[C@H]4CCN(C(=O)C5CCS(=O)(=O)CC5)C4)cc23)cc1C(F)(F)F [Example A8, (1,1-Dioxo-hexahydro-1lambda*6*-thiopyran-4-yl)-{(S)-3-[4-(6-methoxy-5-trifluoromethyl-pyridin-3-yl)-quinolin-6-yloxy]-pyrrolidin-1-yl}-methanone]
6.75 | 8.30 | COc1ncc(-c2ccnc3ccc(O[C@H]4CCN(C(=O)C5CCS(=O)(=O)CC5)C4)c(C)c23)cc1C(F)F [Example B4, {(S)-3-[4-(5-Difluoromethyl-6-methoxy-pyridin-3-yl)-5-methyl-quinolin-6-yloxy]-pyrrolidin-1-yl}-(1,1-dioxo-hexahydro-1lambda*6*-thiopyran-4-yl)-methanone]
7.07 | 8.15 | COc1ncc(-c2ccnc3ccc(O[C@H]4CCN(C(=O)c5ccc(=O)[nH]c5)C4)cc23)cc1C(F)(F)F [Example A19, 5-{(S)-3-[4-(6-Methoxy-5-trifluoromethyl-pyridin-3-yl)-quinolin-6-yloxy]-pyrrolidine-1-carbonyl}-1H-pyridin-2-one]
6.68 | 8.15 | COc1ncc(-c2ccnc3ccc(O[C@H]4CCN(C(=O)C5CCN(C(C)=O)CC5)C4)cc23)cc1C(F)(F)F [Example A16, 1-(4-{(S)-3-[4-(6-Methoxy-5-trifluoromethyl-pyridin-3-yl)-quinolin-6-yloxy]-pyrrolidine-1-carbonyl}-piperidin-1-yl) ethanone]
7.52 | 7.77 | Nc1ncc(-c2ccnc3ccc(O[C@H]4CCN(C(=O)C5CCOCC5)C4)cc23)cc1C(F)(F)F [Example A29, {(S)-3-[4-(6-Amino-5-trifluoromethyl-pyridin-3-yl)-quinolin-6-yloxy]-pyrrolidin-1-yl}-(tetrahydro-pyran-4-yl)-methanone]
6.60 | 8.22 | COc1ncc(-c2ccnc3ccc(O[C@H]4CCN(C(=O)C5CCOCC5)C4)cc23)cc1C [Example A14, {(S)-3-[4-(6-Methoxy-5-methyl-pyridin-3-yl)-quinolin-6-yloxy]-pyrrolidin-1-yl}-(tetrahydro-pyran-4-yl)methanone]
7.48 | 8.40 | COc1ncc(-c2ccnc3ccc(O[C@H]4CCN(C(=O)c5ccc(=O)[nH]c5)C4)c(C)c23)cc1C(F)F [Example B2, 5-{(S)-3-[4-(5-Difluoromethyl-6-methoxy-pyridin-3-yl)-5-methyl-quinolin-6-yloxy]-pyrrolidine-1-carbonyl}-1H-pyridin-2-one]
